This is an account of results in the Deep4Chem optical property database.

The data set in a line: photoluminescence quantum yield (fraction); solvent given as SMILES.

In turn, `C(S/C=C/c1ccc(-c2ccc(/C=C/SC=C3CCCC3)cc2)cc1)=C1CCCC1` registered a photoluminescence quantum yield (in ClCCl) of 0.182.
In the case of `COC(=O)/C(C#N)=c1\s/c(=c2/s/c(=C(/C#N)C(=O)OC)c3cc(-c4ccc5c(c4)C(C)(C)c4ccccc4-5)sc23)c2sc(-c3ccc4c(c3)C(C)(C)c3ccccc3-4)cc12`, where the note is “in Cc1ccccc1”, the photoluminescence quantum yield is 0.531.
Under “in C1COCCO1”, `CCCCN(CCCC)c1ccc(/C=C/c2ccc3nc(-c4ccccc4)c(/C=C/c4ccc(N(C)C)cc4)nc3c2)cc1` gave a photoluminescence quantum yield of 0.17.
For the setting “in C1CCOC1”, `C(=C\c1cc2ccccc2c2ccccc12)/c1c2ccccc2cc2ccccc12` showed a photoluminescence quantum yield of 0.56.
As to `COc1ccc(C2=Cc3ccccc3[Si]2(c2ccccc2)c2ccccc2)cc1`, the photoluminescence quantum yield (in ClCCl) was determined as 0.99.
As for `c1cc2ccc3cc4[nH]ccc4c4ccc(c1)c2c34`, under “in CCOC(C)=O”, the photoluminescence quantum yield came to 0.95.
For `CCCCCCCCCCCCOc1cc2c3c(ccc4c5c(N6CCOCC6)cc6c7c(ccc(c1c34)c75)C(=O)N(C1CCCCC1)C6=O)C(=O)N(C1CCCCC1)C2=O`, the photoluminescence quantum yield (in ClC(Cl)Cl) is 0.067.
For the setting “in ClCCl”, `c1ccc(C2c3ccccc3-c3cc4c(cc32)-c2ccccc2C4c2ccccc2)cc1` (centres undefined) returned a photoluminescence quantum yield of 0.36.
Turning to `N#Cc1ccc(/C=C/c2ccc3ccc4cccc5ccc2c3c45)cc1`, the photoluminescence quantum yield turned out to be 0.8 (in CC1CCCCC1); 0.26 (in CC#N); 0.26 (in CO); 0.79 (in Cc1ccccc1); 0.3 (in ClC(Cl)Cl).
In the case of `COc1ccc(-c2nc(N)nc(C#N)c2C#N)cc1OC`, the photoluminescence quantum yield is, setting by setting: (in C1COCCO1) 0.0073; (in CC#N) 0.0893; (in CC(C)=O) 0.0272; (in CCO) 0.0105; (in CCOC(C)=O) 0.0185; (in CO) 0.0143.
Consider `COc1cc(OC)cc(C2=C(c3cc(OC)c(OC)c(OC)c3)C3=Nc4c(-c5cc(OC)c(OC)c(OC)c5)c(-c5cc(OC)cc(OC)c5)c(-c5ccc(C(C)(C)C)cc5)n4[B-](F)(F)[N+]3=C2c2ccc(C(C)(C)C)cc2)c1`, for which the photoluminescence quantum yield (in Cc1ccccc1) was 0.01.
Regarding `CCC12C(=C3C(=C4c5ccc(-c6ccc(C)s6)cc5S(=O)(=O)C41CC)C(F)(F)C(F)(F)C3(F)F)c1ccc(-c3ccc(C)s3)cc1S2(=O)=O` (centres undefined), the photoluminescence quantum yield by setting is: (in C1COCCO1) 0.78; (in CC#N) 0.67; (in CCCCCC) 0.72; (in CCO) 0.62.
Consider `COc1ccc(-c2cnc(C#Cc3ccccc3)o2)cc1OC`, for which the photoluminescence quantum yield (in ClCCl) worked out at 0.49.
Molecule `O=S(=O)(c1ccc(N(c2ccccc2)c2ccccc2)cc1)c1ccc(S(=O)(=O)c2ccc(N(c3ccccc3)c3ccccc3)cc2)cc1` yielded a photoluminescence quantum yield (in Cc1ccccc1) of 0.64.
Take `Cc1cc(=O)oc2cc3c(cc12)c1c2ccccc2c2ccccc2c1c1c2ccccc2c2ccccc2c31`: for the setting “in ClC(Cl)Cl”, the photoluminescence quantum yield is 0.1.
Where the note is “in CS(C)=O”, `Cc1cccc2cc(-c3cc4cccc(C)c4oc3=O)oc12` registered a photoluminescence quantum yield of 0.88.
For the setting “in CCOC(C)=O”, `O=C(O)c1cc2c(cc3ccc4cccc5ccc2c3c45)[nH]1` yielded a photoluminescence quantum yield of 0.82.
Molecule `Cc1nc2c(ccc3c2sc(/C=C/c2ccc(N(C)C)cc2)[n+]3C)s1` came in with a photoluminescence quantum yield (in ClC(Cl)Cl) of 0.02.
`CCn1c2ccccc2c2ccc(C#N)cc21` displayed a photoluminescence quantum yield (in C1CCCCC1) of 0.12.
In turn, `CCN1C(=CC2=C([O-])C(=Cc3[se]c4ccccc4[n+]3CC)C2=O)[Se]c2ccccc21` came in with a photoluminescence quantum yield (in CC(C)O) of 0.14.
Molecule `COc1ccc(C2=C(c3ccc(OC)cc3)C(C)(C)c3c2ccc2ccccc32)cc1` returned a photoluminescence quantum yield (in C1CCCCC1) of 0.11.
Take `O=[N+]([O-])c1ccc(O)c(-c2nc3c(c4c2-c2ccccc2CC4)-c2ccccc2CC3)c1`: the photoluminescence quantum yield (in ClCCl) amounted to 0.2.
On to `c1ccc(-c2ccc(-c3nc(-c4ccccc4)c(N(c4ccccc4)c4ccccc4)[se]3)cc2)cc1`, for which, under “in ClC(Cl)Cl”, the photoluminescence quantum yield was found to be 0.159.
As for `CN(C)c1ccc2nc(-c3ccc(C=O)cc3)sc2c1`, the photoluminescence quantum yield (in C1CCCCC1) worked out at 0.8, the photoluminescence quantum yield (in CC#N) amounted to 0.66, the photoluminescence quantum yield (in CO) was 0.1 and the photoluminescence quantum yield (in ClC(Cl)Cl) was determined as 0.85.
Molecule `C(S/C=C/c1ccc(-c2ccc(/C=C/SC=C3CCCCC3)cc2)cc1)=C1CCCCC1` had a photoluminescence quantum yield (in ClCCl) of 0.238.
On to `CCCCCCCCC1(CCCCCCCC)c2cc(-c3ccc([N+](=O)[O-])cc3)ccc2-c2ccc(-c3ccc([N+](=O)[O-])cc3)cc21`, for which the photoluminescence quantum yield (in C1CCCCC1) is 0; the photoluminescence quantum yield (in CCO) was 0; the photoluminescence quantum yield (in CN(C)C=O) amounted to 0.31; the photoluminescence quantum yield (in CS(C)=O) was 0.28; the photoluminescence quantum yield (in Cc1ccccc1) was found to be 0; the photoluminescence quantum yield (in ClC(Cl)Cl) was determined as 0.11.
For `CCCc1ccc(C#Cc2cc(C#Cc3ccc(CCC)cc3)c3ccc4c(C#Cc5ccc(N(C)C)cc5)cc(C#Cc5ccc(CCC)cc5)c5ccc2c3c54)cc1`, for the setting “in ClCCl”, the photoluminescence quantum yield worked out at 0.44.
Regarding `c1ccc(-c2cc(-c3ccc(-c4nc(-c5ccccn5)c(-c5ccccn5)[nH]4)cc3)cc(-c3ccccn3)n2)nc1`, the photoluminescence quantum yield was determined as 0.06 (in C1CCOC1); 0.08 (in CC#N); 0.201 (in CC(C)=O); 0.006 (in CCCCCC); 0.202 (in CCO); 0.153 (in CCOC(C)=O). Besides, the photoluminescence quantum yield came to 0.135 (in CN(C)C=O); 0.078 (in CO); 0.111 (in CS(C)=O); 0.13 (in ClC(Cl)Cl); 0.145 (in ClCCl); 0.045 (in O).
For the setting “in CC#N”, `Cc1ccc(-c2ccc(/C=C/c3ccccc3)cn2)nc1` returned a photoluminescence quantum yield of 0.67.
For the molecule `CCn1c(=O)nc2n(C)c3cc(C)ccc3nc-2c1=O`, the photoluminescence quantum yield by setting is: (in C1COCCO1) 0.14; (in CC#N) 0.14; (in CO) 0.11; (in ClCCCl) 0.12.
For the molecule `COc1ccc(-c2c3cc4ccccc4cc3c(C#Cc3ccccc3)c3cc4ccccc4cc23)cc1`, for the setting “in ClCCl”, the photoluminescence quantum yield is 0.02.
`CNc1cc2nc3cc(Cl)c(Cl)cc3nc2cc1NC` gave a photoluminescence quantum yield (in CCO) of 0.14.
In turn, `CCOC(=O)c1ccccc1-c1c2ccc(=[N+](CC)CC)cc-2oc2c1oc1cc(N)ccc12` registered a photoluminescence quantum yield (in CCO) of 0.501, a photoluminescence quantum yield (in ClCCl) of 0.732 and a photoluminescence quantum yield (in O) of 0.088.
Consider `Brc1ccc(/C=C/c2ccncn2)cc1`, for which the photoluminescence quantum yield (in ClCCl) came out at 0.01.
`c1cc2ccc1-c1ccc(cc1)-c1ccc(s1)-c1ccc(cc1)-c1ccc(cc1)-c1ccc(s1)-c1ccc(cc1)-c1ccc(cc1)-c1ccc(s1)-c1ccc(cc1)-c1ccc(cc1)-c1ccc-2s1` gave a photoluminescence quantum yield (in C1CCOC1) of 0.37.
For `COc1ccc2c(c1)c1cc(OC)ccc1c1c2c2c(C(=O)NC(C)(C)C)ccc(C(=O)NC(C)(C)C)c2c2c3ccc(OC)cc3c3cc(OC)ccc3c21`, the photoluminescence quantum yield (in ClCCl) was 0.1.
Regarding `COc1ccc(C#Cc2ccc(C#N)cc2)cc1OC`, the photoluminescence quantum yield reads like this: (in C1COCCO1) 0.16; (in CC#N) 0.13; (in CCCCCC) 0.16; (in CCCCCCC) 0.16; (in CCCO) 0.13; (in CCOC(C)=O) 0.13. Further, the photoluminescence quantum yield came to 0.21 (in CS(C)=O), 0.18 (in ClC(Cl)Cl) and 0.22 (in ClCCl).
In turn, `CCOC(=O)C1=C(C(=O)OC)N2CCc3cc(OC)c(OC)cc3C2=C[C@H](c2ccc(Cl)cc2)C12c1ccccc1-c1ccccc12` displayed a photoluminescence quantum yield (in ClCCl) of 0.00105.
The molecule `CN(C)c1ccc(/C=C/c2cc(/C=C/c3ccc(N(C)C)cc3)nc(N)n2)cc1` returned a photoluminescence quantum yield (in Cc1ccccc1) of 0.65 and a photoluminescence quantum yield (in ClC(Cl)Cl) of 0.55.
Under “in CC#N”, `CN1/C(=C\C=C\C2=C3C=CC(c4ccccc4)=[N+]3[B-](F)(F)n3c2ccc3-c2ccccc2)C(C)(C)c2ccccc21` displayed a photoluminescence quantum yield of 0.1.
Take `CCC1(CC)c2cc(N(c3ccccc3)c3ccccc3)ccc2-c2c1c1c(c3c2C(CC)(CC)c2cc(N(c4ccccc4)c4ccccc4)ccc2-3)C(CC)(CC)c2cc(N(c3ccccc3)c3ccccc3)ccc2-1`: the photoluminescence quantum yield (in C1CCOC1) was found to be 0.27.
With `Nc1cccc2ccccc12`, the photoluminescence quantum yield (in C1CCCCC1) amounted to 0.6.
On to `Cc1cc(-n2c3ccccc3c3cc4c(cc32)C2c3ccccc3C4c3ccccc32)ccc1-c1nc(-c2ccccc2)nc(-c2ccccc2)n1`, for which the photoluminescence quantum yield by setting is: (in Cc1ccccc1) 0.8; (in O=P(c1ccccc1)(c1ccccc1)c1ccccc1Oc1ccccc1P(=O)(c1ccccc1)c1ccccc1) 0.51.
Under “in C1CCOC1”, `O=C(c1ccc(/C(=C(/c2ccccc2)c2ccc(C(=O)c3ccc(-n4c5ccccc5c5ccccc54)cc3)cc2)c2ccccc2)cc1)c1ccc(-n2c3ccccc3c3ccccc32)cc1` yielded a photoluminescence quantum yield of 0.268.
As to `CCCCC(CC)Cn1c2cc(C#N)ccc2c2ccc(C#Cc3cc(C#Cc4ccc5c6ccc(C#N)cc6n(CC(CC)CCCC)c5c4)c4ccc5c(C#Cc6ccc7c8ccc(C#N)cc8n(CC(CC)CCCC)c7c6)cc(C#Cc6ccc7c8ccc(C#N)cc8n(CC(CC)CCCC)c7c6)c6ccc3c4c65)cc21` (centres undefined), under “in ClCCl”, the photoluminescence quantum yield came to 0.61.
On to `CCN1c2ccc(-c3cc(C(F)(F)F)[nH]n3)cc2Sc2cc(-c3cc(C(F)(F)F)[nH]n3)ccc21`, for which the photoluminescence quantum yield by setting is: (in C1CCOC1) 0.46; (in CC#N) 0.46; (in CN(C)C=O) 0.75; (in ClCCl) 0.56; (in c1ccccc1) 0.49.
As to `Brc1ccc(-c2nc3sc4ccccc4c3s2)cc1`, under “in CS(C)=O”, the photoluminescence quantum yield amounted to 0.88.
For the setting “in C1CCOC1”, `F[B-]1(F)Oc2c(-c3cccc4c3O[B-](F)(F)[n+]3c(-c5ccccc5)c(-c5ccccc5)n(-c5ccc(C(F)(F)F)cc5)c3-4)cccc2-c2n(-c3ccc(C(F)(F)F)cc3)c(-c3ccccc3)c(-c3ccccc3)[n+]21` yielded a photoluminescence quantum yield of 0.68.
For the setting “in ClCCl”, `Oc1ccc2ccccc2c1-c1nc2c(c3c1-c1ccccc1CC3)-c1ccccc1CC2` showed a photoluminescence quantum yield of 0.07.
